Data taken from the NIST ThermoML archive (doi:10.1021/je900596d).

Details: Liquid; for mass density: Vibrating tube method; for vapor or sublimation pressure: Closed cell (Static) method

FC(F)=C(F)C(F)(F)F [hexafluoropropene]
Details	mass density [kg/m3]
263.49 K, 9976.6 kPa	1506.02
283.17 K, 467.7 kPa	1382.09
283.17 K, 472.9 kPa	1382.09
283.17 K, 473.5 kPa	1382.21
283.17 K, 478.6 kPa	1382.26
283.17 K, 483 kPa	1382.29
283.17 K, 491.9 kPa	1382.32
283.17 K, 493.1 kPa	1382.39
283.17 K, 504.9 kPa	1382.43
283.17 K, 526.8 kPa	1382.57
283.17 K, 533.6 kPa	1382.61
283.17 K, 540.4 kPa	1382.7
283.17 K, 548.7 kPa	1382.78
283.17 K, 574 kPa	1382.98
283.17 K, 583 kPa	1382.99
283.17 K, 602 kPa	1383.21
283.17 K, 637 kPa	1383.38
283.17 K, 662.9 kPa	1383.6
283.17 K, 691.4 kPa	1383.74
283.17 K, 716 kPa	1383.92
283.17 K, 731.4 kPa	1384.12
283.17 K, 751.9 kPa	1384.27
283.17 K, 766.8 kPa	1384.29
283.17 K, 790.1 kPa	1384.57
283.17 K, 833.3 kPa	1384.9
283.17 K, 856.3 kPa	1384.98
283.17 K, 882.3 kPa	1385.18
283.17 K, 902.7 kPa	1385.3
283.17 K, 924.8 kPa	1385.58
283.17 K, 945.6 kPa	1385.66
283.17 K, 965.5 kPa	1385.81
283.17 K, 988.4 kPa	1386.02
283.17 K, 1017 kPa	1386.11
283.17 K, 1047.4 kPa	1386.36
283.17 K, 1072.3 kPa	1386.5
283.17 K, 1098.6 kPa	1386.88
283.17 K, 1125.8 kPa	1386.96
283.17 K, 1165.1 kPa	1387.2
283.17 K, 1199.3 kPa	1387.58
283.17 K, 1251 kPa	1387.98
283.17 K, 1286 kPa	1388.12
283.17 K, 1320.8 kPa	1388.36
283.17 K, 1354.8 kPa	1388.62
283.17 K, 1394.7 kPa	1388.89
283.17 K, 1427.8 kPa	1389.18
283.17 K, 1463.5 kPa	1389.43
283.17 K, 1507.4 kPa	1389.74
283.17 K, 1549.2 kPa	1389.92
283.17 K, 1591 kPa	1390.31
283.17 K, 1634.6 kPa	1390.61
283.17 K, 1720.9 kPa	1391.22
283.17 K, 1765.5 kPa	1391.52
283.17 K, 1806 kPa	1391.83
283.17 K, 1849 kPa	1391.99
283.17 K, 1895 kPa	1392.44
283.17 K, 1935.4 kPa	1392.64
283.17 K, 1975.7 kPa	1392.98
283.17 K, 2022.9 kPa	1393.24
283.17 K, 2076.3 kPa	1393.62
283.17 K, 2128.3 kPa	1394
283.17 K, 2174.7 kPa	1394.46
283.17 K, 2219 kPa	1394.73
283.17 K, 2306.2 kPa	1395.23
283.17 K, 2350.5 kPa	1395.59
283.17 K, 2406.1 kPa	1396.02
283.17 K, 2455.4 kPa	1396.26
283.17 K, 2506.6 kPa	1396.64
283.17 K, 2551.5 kPa	1396.81
283.17 K, 2593.9 kPa	1397.25
283.17 K, 2644 kPa	1397.48
283.17 K, 2684 kPa	1397.73
283.17 K, 2734.9 kPa	1398.07
283.17 K, 2785.7 kPa	1398.39
283.17 K, 2848.1 kPa	1398.74
283.17 K, 2900.4 kPa	1399.13
283.17 K, 2951 kPa	1399.5
283.17 K, 3020.7 kPa	1400.01
283.17 K, 3136.8 kPa	1400.76
283.17 K, 3180.2 kPa	1400.96
283.17 K, 3236.8 kPa	1401.44
283.17 K, 3291.9 kPa	1401.74
283.17 K, 3350 kPa	1402.05
283.17 K, 3394.2 kPa	1402.39
283.17 K, 3434.9 kPa	1402.61
283.17 K, 3476.3 kPa	1403.01
283.17 K, 3535.7 kPa	1403.26
283.17 K, 3591.4 kPa	1403.66
283.17 K, 3653.3 kPa	1403.98
283.17 K, 3709.6 kPa	1404.3
283.17 K, 3821.9 kPa	1405.06
283.17 K, 3864.3 kPa	1405.48
283.17 K, 3907.8 kPa	1405.66
283.17 K, 3949 kPa	1405.94
283.17 K, 4020.4 kPa	1406.43
283.17 K, 4078.5 kPa	1406.71
283.17 K, 4127.6 kPa	1407.05
283.17 K, 4182.4 kPa	1407.4
283.17 K, 4239.6 kPa	1407.72
283.17 K, 4293.4 kPa	1408.17
283.17 K, 4409.9 kPa	1408.82
283.17 K, 4465.6 kPa	1409.18
283.17 K, 4516.2 kPa	1409.47
283.17 K, 4620.4 kPa	1410.09
283.17 K, 4676.1 kPa	1410.42
283.17 K, 4728.4 kPa	1410.73
283.17 K, 4783.7 kPa	1411.1
283.17 K, 4835.3 kPa	1411.33
283.17 K, 4889.5 kPa	1411.65
283.17 K, 4943.6 kPa	1412.08
283.17 K, 4996 kPa	1412.33
283.17 K, 5057.6 kPa	1412.68
283.17 K, 5126.3 kPa	1413.1
283.17 K, 5167.5 kPa	1413.34
283.17 K, 5237.5 kPa	1413.76
283.17 K, 5303.9 kPa	1414.14
283.17 K, 5372.7 kPa	1414.61
283.17 K, 5504.1 kPa	1415.44
283.17 K, 5572.6 kPa	1415.73
283.17 K, 5644.7 kPa	1416.12
283.17 K, 5720.2 kPa	1416.66
283.17 K, 5786.5 kPa	1416.98
283.17 K, 5855.5 kPa	1417.42
283.17 K, 5920.9 kPa	1417.74
283.17 K, 5997.2 kPa	1418.2
283.17 K, 6065.1 kPa	1418.58
283.17 K, 6130.5 kPa	1419
283.17 K, 6196 kPa	1419.33
283.17 K, 6260.9 kPa	1419.73
283.17 K, 6326.3 kPa	1420.11
283.17 K, 6398.7 kPa	1420.44

Details	vapor or sublimation pressure [kPa]
268.24 K	272
273.24 K	326.8
278.21 K	389
278.22 K	388.6
